Experimental data: patent US20160244436A1, “NOVEL FUNCTIONALIZED 5-(PHENOXYMETHYL)-1,3-DIOXANE ANALOGS EXHIBITING CYTOCHROME P450 INHIBITION AND THEIR METHOD OF USE” (CORTENDO AB (PUBL), priority 2013, published 2016)

Assay: Pharmacokinetic studies in the guinea pig (1 mg/kg IV, 10 mg/kg oral)
Type: in vivo
Procedure: Pharmacokinetic studies in the guinea pig were run using 1 mg/kg IV dosing (20% DMA, 40% TEG, 40% water) and 10 mg/kg oral dosing (2% Tween-80, 98% HPMC (1% water)).

With `CC(=O)N1CCN(c2ccc(CO[C@H]3CO[C@](Cn4ccnc4)(c4ccc(Cl)cc4Cl)OC3)cc2)CC1` [drawing 113] the bioavailability (in vivo, 10 mg/kg oral vs 1 mg/kg IV) was 184%, the AUC0-inf (oral, 10 mg/kg) was 14891 ng·h/mL and the AUC0-last (oral, 10 mg/kg) was 8231 ng·h/mL. It also gave an AUCExtra (oral, 10 mg/kg) of 43.93%, a Cmax (oral, 10 mg/kg) of 1018 ng/mL and an MRT0-last (oral, 10 mg/kg) of 5.56 h. The Tmax (oral, 10 mg/kg) was 3 h, the t1/2 (oral, 10 mg/kg) was 6.0 h and the “DNAUC (0-inf)” value (oral, 10 mg/kg, dose-normalised AUC) was 823.1. It also gave a Rsq (oral, 10 mg/kg, fit of terminal phase) of 0.91.
